Source: ChEMBL document CHEMBL1153894, “Chloroquine-astemizole hybrids with potent in vitro and in vivo antiplasmodial activity” (Bioorg Med Chem Lett, 2009)

Key:
[1] = tested on: Plasmodium falciparum; assay: Antiplasmodial activity against chloroquine-resistant Plasmodium falciparum K1 at 5 uM; type: functional
[2] = Selectivity ratio of cytotoxicity for rat L6 cells to IC50 for Plasmodium falciparum K1; type: cell-based; conditions: read-out: FC
[3] = tested on: Plasmodium berghei; assay: Antiplasmodial activity as reduced parasitaemia against Plasmodium berghei infected mice (Mus musculus) at 4 x 20 mg/kg intraperitoneal dose; type: functional; set-up: scale not given: the % may be the effect or the level left
[4] = tested on: Plasmodium berghei; assay: Antiplasmodial activity as reduced parasitaemia against Plasmodium berghei infected mice (Mus musculus) at 4 x 50 mg/kg intraperitoneal dose; type: functional; set-up: scale not given: the % may be the effect or the level left
[5] = tested on: Plasmodium berghei; assay: Antiplasmodial activity as mean survival time against Plasmodium berghei infected mice (Mus musculus) at 4 x 20 mg/kg intraperitoneal dose; type: functional
[6] = tested on: Plasmodium falciparum; assay: Antiplasmodial activity against chloroquine-resistant Plasmodium falciparum K1; type: functional, organism-based
[7] = tested on: Plasmodium berghei; assay: Antiplasmodial activity as mean survival time against Plasmodium berghei infected mice (Mus musculus) at 4 x 10 mg/kg intraperitoneal dose; type: functional
[8] = tested on: L6; assay: Cytotoxicity against rat L6 cells; type: cell-based
[9] = tested on: Plasmodium berghei; assay: Antiplasmodial activity as mean survival time against Plasmodium berghei infected mice (Mus musculus) at 4 x 50 mg/kg intraperitoneal dose; type: functional
[10] = tested on: Plasmodium berghei; assay: Antiplasmodial activity as reduced parasitaemia against Plasmodium berghei infected mice (Mus musculus) at 4 x 10 mg/kg intraperitoneal dose; type: functional; set-up: scale not given: the % may be the effect or the level left

With COc1ccc(CCN2CCC(Nc3nc4ccccc4n3Cc3ccc(F)cc3)CC2)cc1 [ASTEMIZOLE] as the compound, how does the Activity [1] read?
Its Activity is 50%.

What about the selectivity ratio [2] of the same compound?
The selectivity ratio was > 100.

With Fc1ccc(Cn2c(NC3CCN(c4ccnc5cc(Cl)ccc45)CC3)nc3ccccc32)cc1 as the compound, how does the Activity [3] read?
Its Activity is 80%.

What about the Activity [4] of the same compound?
Its Activity is 99%.

What about the MST [5] of the same compound?
Its MST is 8 days.

And the IC50 [6]?
The IC50 was 37 nM.

And the selectivity ratio [2]?
Its selectivity ratio is > 100.

And the MST [7]?
Its MST is 17 days.

What about the Activity [8] of the same compound?
The Activity was 8.8 µM.

What about the MST [9] of the same compound?
The MST was 13 days.

And the Activity [10]?
Its Activity is 99%.

For Fc1ccc(Cn2c(N3CCC(Nc4ccnc5cc(Cl)ccc45)CC3)nc3ccccc32)cc1, which IC50 [6] is on record?
Its IC50 is 64 nM.

And the selectivity ratio [2]?
The selectivity ratio was > 100.

What about the Activity [8] of the same compound?
Its Activity is 9.1 µM.

Which IC50 [6] does the source give for Fc1ccc(Cn2c(N3CCN(CCCNc4ccnc5cc(Cl)ccc45)CC3)nc3ccccc32)cc1 here?
Its IC50 is 23 nM.

What about the selectivity ratio [2] of the same compound?
The selectivity ratio was > 100.

And the Activity [8]?
The Activity was 6.86 µM.

With Fc1ccc(Cn2c(N3CCN(c4ccnc5cc(Cl)ccc45)CC3)nc3ccccc32)cc1 as the compound, how does the IC50 [6] read?
The IC50 was 610 nM.

And the selectivity ratio [2]?
The selectivity ratio was > 100.

What about the Activity [8] of the same compound?
The Activity was 126 µM.
